Reference: PMC12654037, “Norditerpene Natural Products from Subterranean Fungi with Anti-Parasitic Activity” (Microorganisms, 2025)
Entries after “also recorded” stand apart in the source; their conditions may differ. Where two headings read alike, the source gives them in different places.

What was measured:
[1] = system: P. falciparum 3D7; experiment: Plasmodium falciparum growth inhibition assay (SYBR Green I), 3D7; details: 3D7, 72 h, read-out: EC50 3D7(M)
Procedure: Plasmodium falciparum growth inhibition assay: Antiplasmodial EC50 results were determined using a fluorescence-based SYBR Green I assay performed using asynchronous cultures [30, 35]. […] Plates were subsequently frozen at −80 °C to facilitate lysis. […] Relative fluorescence units (RFUs) were normalized based on chloroquine-treated and no treatment controls. Serial dilutions of compounds were prepared in RPMI with final assay conditions of ≤0.2% DMSO. Each assay was conducted in triplicate with three biological replicates.

[2] = system: C. parvum; experiment: C. parvum growth inhibition assay (Cp-NLuc-infected HCT-8 cells); type: cell-based, Cryptosporidium parvum; details: Cryptosporidium parvum
Procedure: C. parvum growth inhibition assays: The in vitro growth inhibition assay of C. parvum has been previously described. Briefly, clear-bottom, white-sided 96 well plates were seeded with HCT-8 cells. Once the cells reached between 50% and 75% confluency, they were infected with Cp-NLuc oocysts (10,000/well) in complete media containing 0.6% taurocholate. At 24 h post-infection (hpi), the infected cells were treated with compounds at various concentrations. DMSO was used as a vehicle control in parallel. Parasite growth was determined at 72 hpi by measuring relative luminescence units (RLUs) using Promega Nano-Glo substrate (Promega, Madison, WI, USA) and a SpectraMax® L Microplate Reader (Molecular Devices, San Jose, CA, USA). The percent inhibition of parasite growth was calculated as [(RLUDMSO − RLUcompound)/RLUDMSO] × 100.

[3] = system: G. lamblia WBC6 and CBG99 trophozoites; experiment: Giardia lamblia trophozoite growth inhibition assay; type: cell-based
Procedure: Compound inhibition assay against Giardia lamblia WBC6 and CBG99 trophozoites: Biological replicates of growth inhibition assays were performed using wild-type G. lamblia WBC6 and G. lamblia CBG99 trophozoites at 37 °C under reduced oxygen conditions in a sealed 0.5 mL airtight sterile tube (USA Scientific, Ocala, FL, USA), following the susceptibility assay described below. G. lamblia trophozoites were grown in TYI-S-33 medium supplemented with 10% bovine serum and 0.05 mg/mL bovine bile, as previously described. A 3-fold serial concentration of pure compounds starting at 29 µM was screened against 75,000 cells/mL of parasites in modified TYI-S-33 medium with a final dimethyl sulfoxide (DMSO) concentration of 0.14%. Metronidazole was run in parallel at a final highest concentration of 66.7 µM and 3-fold subsequent serial dilutions. The untreated negative control contained 0.14% of DMSO. Sealable test tubes filled to its maximum volume of 700 µL were used to perform this assay. The test tubes were incubated at 37 °C for 72 h. After incubation, the tubes were chilled on ice, and the reaction was transferred to 96-well plates. In the plate, 50 µL of an ATP binding luminescence marker, CellTiter-Glo (Promega, Madison, WI, USA) or 10 µL of 2.5 mg/mL d-luciferin (GoldBio, St Louis, MO, USA) was added to each well and allowed to develop at room temperature for 10 min [31, 36]. The assay was read and analyzed using an EnVision Plate Reader (Perkin Elmer, Waltham, MA, USA). Response curves and EC50 values (the concentration at which 50% of G. lamblia trophozoite growth was inhibited) were calculated using GraphPad Prism (GraphPad, LaJolla, CA, USA).

[4] = system: C. parvum; experiment: Inhibition of C. parvum infection in IFNγ −/− mice; type: in vivo, C57BL/6 IFNγ −/− mice; details: 4 mg/kg oral gavage every 12 h, four doses, days 5 and 6 post-infection, AUC of RLUs/gram feces
Procedure: Inhibition of C. parvum infection in IFN-gamma knock-out (IFNγ −/−) mice: Twelve female C57BL/6 IFNγ −/− mice (4 weeks old) from the Jackson Laboratory were housed in a controlled environment with a 12 h light/dark cycle and access to food and water ad libitum. Cp-NLuc oocysts were isolated from infected mouse feces and purified using a sodium chloride density gradient. Mice were inoculated via oral gavage with a suspension of 10^4 oocysts in 50 µL sterile PBS. On days 5 and 6 post-infection, mice were treated with 4 mg/kg of oidiolactone A or DMSO vehicle control every 12 h for a total of four doses (6 mice per treatment group). Fecal samples were collected daily and stored at −20 °C until analysis. Feces were homogenized in a lysis buffer solution, centrifuged, and the supernatant was incubated with Nano-Glo® substrate in a 96-well plate, as previously described. Luminescence was measured in a microplate reader immediately after substrate addition. Oocyst shedding, measured in RLUs/gram of feces, was plotted over time, and the area under the curve was determined for each mouse. Mice were sacrificed 14 days post-infection, and serum was collected for biochemical analysis. Biochemical analyses were performed using the Beckman Coulter AU480 automated analyzer (Beckman Coulter, Brea, CA, USA) at the Clinical Pathology Laboratory, Veterinary Medical Center, University of Minnesota.

[5] = system: C. parvum sporozoites; experiment: C. parvum invasion inhibition assay; type: cell-based, Cryptosporidium parvum; details: 7.5 µM, 3 h infection, luciferase and IFA formats
Procedure: C. parvum excystation and invasion assays: Oocyst excystation rates in the presence of compounds were determined as previously described. The C. parvum invasion inhibition assays were conducted in two formats. In the first format, described previously, HCT-8 cells were seeded on glass slides (CELLTREAT Scientific Product, Pepperell, MA, USA) and allowed to grow to confluence. Oidiolactone A was added to the cells for one hour. TrtE and DMSO were run in parallel as positive and negative controls, respectively. The cell monolayers were then infected with 1.2 × 10^6 wild-type C. parvum oocysts. After 3 h of incubation at 37 °C, the slides were washed five times with 111 mM D-galactose, fixed with 4% paraformaldehyde, and permeabilized with 0.25% Triton-X. C. parvum sporozoites were detected with rabbit anti-gp40 [39] and Alexa Fluor 594 goat anti-rabbit antibodies. The HCT-8 cell nuclei were stained with 0.09 mM Hoechst. Slides were coded to enable unbiased counting, and sporozoites from at least 10 randomly selected fields were counted in each sample at 100× magnification (Zeiss® Axioscope 5). The percentage of invaded parasites was determined using the following equation: % Invaded parasites = [parasitescompound/parasitesDMSO] × 100. This experiment was run in duplicate with two biological replicates. […]

[6] = system: Cp-NLuc; experiment: C. parvum -static versus -cidal washout assay; type: cell-based, Cryptosporidium parvum
Procedure: To determine -static versus -cidal activity, the infection assay was conducted as described, but infected cells were treated with compounds for 30 min up to 24 h. The compounds were removed after the designated times, and infection was quantified at 72 h post-infection. To determine the activity of the compounds against asexual and sexual stages of the parasite, compounds were added for 4 h windows at times corresponding to asexual or sexual development. Parasite proliferation was then determined at 72 h post-infection. For all assays, each sample was run in triplicate, and three biological replicates were performed.

`CO[C@H]1OC(=O)C=C2[C@@]13O[C@@H]3[C@H]1OC(=O)[C@@]3(C)CCC[C@@]2(C)[C@@H]13` [compound 1, oidiolactone A] showed an EC50 [1] of 3.33e-06 ± 6.4e-07 M, an EC50 ([2]; HCT-8, read-out: EC50 against C. parvum) of 0.53 µM and an EC50 ([2]; Cp-NLuc-infected HCT-8 cells, 7.5 µM to 117 nM, Figure 2E, read-out: C. parvum EC50) of 0.529 µM. The “activity against G. lamblia (no activity up to)” value ([3]; 72 h) was > 29 µM, the EC50 ([3]; Giardia duodenalis, read-out: EC50 G. lamblia) was > 30 µM and the “reduction in C. parvum oocyst shedding” value [4] was 70%. The “effect on parasite invasion” value [5] was “no effect; also recorded: did not exhibit any effect”, the EC90 ([6]; Cryptosporidium parvum) was 7.5 µM and the “treatment time after which C. parvum did not recover (killing time)” value ([6]; at EC90 7.5 µM, compound washed out, read 72 h post-infection) was 8 to 12 h.
